The values below come from ChEMBL document CHEMBL1146765, “Synthesis and biological activity of some structural modifications of pancratistatin” (2004).

For one assay, the system named is BXPC-3. The assay is described as follows: Tested for growth inhibition activity against pancreas BXPC-3 human cancer cell. Format: functional.
A further assay deals with MCF7. The assay is described as follows: Tested for growth inhibition activity against breast MCF-7 human cancer cell. It is filed as functional.
Another assay relates to NCI-H460. The assay is described as follows: Tested for growth inhibition activity against lung NCI-H460 human cancer cell. Format: functional.
A further assay has as its system P388. The assay is described as follows: Tested for growth inhibition activity against murine P388 lymphocytic leukemia. It is filed as functional, Mus musculus.
The next assay concerns SF-268. The assay is described as follows: Tested for growth inhibition activity against CNS SF-268 human cancer cell. It is filed as functional.
The subject of another assay is DU-145. The assay is described as follows: Tested for growth inhibition activity against prostate DU-145 human cancer cell. Format: functional.
Another assay concerns KM-20L2. The assay is described as follows: Tested for growth inhibition activity against colon KM20L2 human cancer cell. Format: functional.

With `COC(=O)N[C@H]1[C@H](OC(C)=O)[C@H](OC(C)=O)[C@@H](OC(C)=O)[C@H](OC(C)=O)[C@@H]1c1cccc(OC)c1`, the Growth-inhibitory concentration with BXPC-3 is above 10 µg/mL; in the assay on MCF7, above 10 µg/mL; with NCI-H460 it was above 10 µg/mL; in the assay with P388, 19.3 µg/mL; in the assay on SF-268, above 10 µg/mL; with DU-145 it was above 10 µg/mL. The same compound came in with a Growth inhibitory concentration in the assay on KM-20L2 above 10 µg/mL.

Turning to `COc1ccc2c(c1)[C@H]1[C@@H](O)[C@H](O)[C@@H](O)[C@@H](O)[C@@H]1NC2=O`, the Growth-inhibitory concentration amounted to 4.9 µg/mL with BXPC-3; 4.4 µg/mL in the assay on MCF7; 2.8 µg/mL in the assay with NCI-H460; 4.3 µg/mL with P388; 3.3 µg/mL in the assay on SF-268; 2.6 µg/mL in the assay on DU-145. This compound also gave a Growth inhibitory concentration in the assay with KM-20L2 of 3.6 µg/mL.

Take `O=C1N[C@H]2[C@H](O)[C@H](O)CC[C@@H]2c2cc3c(cc21)OCO3`: the Growth-inhibitory concentration in the assay on BXPC-3 is above 10 µg/mL; in the assay on MCF7, above 10 µg/mL; with NCI-H460, above 10 µg/mL; in the assay with P388, 1.39 µg/mL; with SF-268 it was above 10 µg/mL; in the assay on DU-145 it was above 10 µg/mL. In addition, the Growth inhibitory concentration in the assay with KM-20L2 was above 10 µg/mL.

In the case of `O=C1N[C@H]2[C@H](O)[C@H](O)[C@@H](O)[C@H](O)[C@@H]2c2cc3c(c(O)c21)OCO3` [PANCRATISTATIN], the Growth-inhibitory concentration in the assay on BXPC-3 stood at 0.028 µg/mL; with MCF7 it was 0.032 µg/mL; with NCI-H460, 0.048 µg/mL; in the assay on P388, 0.039 µg/mL; in the assay on SF-268, 0.017 µg/mL; in the assay with DU-145, 0.016 µg/mL. The compound further came in with a Growth inhibitory concentration with KM-20L2 of 0.062 µg/mL.

Regarding `O=C1N[C@H]2[C@H](O)[C@H](O)[C@@H](O)[C@H](O)[C@@H]2c2cc3c(cc21)OCO3`, the Growth-inhibitory concentration turned out to be 0.29 µg/mL in the assay on NCI-H460 and 0.44 µg/mL in the assay on P388. The same compound showed a Growth inhibitory concentration in the assay on KM-20L2 of 0.22 µg/mL.

As for `COc1ccc2c(c1)[C@@H]1[C@@H](NC2=O)[C@H](OC(C)=O)[C@H](OC(C)=O)[C@@H](OC(C)=O)[C@@H]1OC(C)=O`, the Growth-inhibitory concentration is above 10 µg/mL in the assay on BXPC-3; 4.6 µg/mL in the assay with MCF7; above 10 µg/mL with NCI-H460; 2.1 µg/mL with P388; above 10 µg/mL with SF-268; 6.7 µg/mL with DU-145. In the assay with KM-20L2, the Growth inhibitory concentration was above 10 µg/mL.

For the compound `O=C1N[C@@H]2C(=C[C@H](O)[C@@H](O)[C@H]2O)c2cc3c(c(O)c21)OCO3` [NARCICLASINE], the Growth-inhibitory concentration is 0.026 µg/mL in the assay with BXPC-3; 0.019 µg/mL in the assay on MCF7; 0.032 µg/mL with NCI-H460; 0.0012 µg/mL in the assay on P388; 0.021 µg/mL with SF-268; 0.011 µg/mL in the assay with DU-145. In the assay on KM-20L2, this compound showed a Growth inhibitory concentration of 0.021 µg/mL.

As to `CC(=O)O[C@H]1[C@@H]2NC(=O)c3cc4c(cc3[C@H]2CC[C@H]1OC(C)=O)OCO4`, the Growth-inhibitory concentration was above 10 µg/mL with BXPC-3; above 10 µg/mL with MCF7; above 10 µg/mL in the assay with NCI-H460; 1.1 µg/mL with P388; above 10 µg/mL in the assay on SF-268; above 10 µg/mL in the assay on DU-145. Also, the Growth inhibitory concentration with KM-20L2 is above 10 µg/mL.
